Laboratory results published in PubChem BioAssay AID256 (DTP/NCI, 2004).
Where “and” joins values, the source holds several entries; their conditions need not be identical. Equal entries are not always repeated. Toxic doses and inconclusive results are not listed. Rule for the calls: active = survival T/C of 150% or more; inactive = T/C below 125% in these data.

Tested on: CD2F1 mice, L1210 leukemia ip, survival T/C
Assay: NCI In Vivo Anticancer Drug Screen. Data for tumor model L1210 Leukemia (intraperitoneal) in CD2F1 (CDF1) mice
Details: higher = longer survival
How it was run: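 Vehicle-treated tumor-bearing mice served as controls (C) for compound-treated mice (T). Reported figure is T divided by C.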

[1] = endpoint: mean survival time, dose: 100.0 mg/kg/injection, schedule: Q01DX009 (ip), vehicle: saline with Tween-80
[2] = endpoint: mean survival time, dose: 200.0 mg/kg/injection, schedule: Q01DX009 (ip), vehicle: saline with Tween-80
[3] = endpoint: mean survival time, dose: 400.0 mg/kg/injection, schedule: Q01DX009 (ip), vehicle: saline with Tween-80
[4] = endpoint: mean survival time, dose: 100.0 mg/kg/injection, schedule: Q01DX001 (ip), vehicle: saline
[5] = endpoint: mean survival time, dose: 100.0 mg/kg/injection, schedule: Q04DX002 (ip), vehicle: saline with Tween-80
[6] = endpoint: mean survival time, dose: 200.0 mg/kg/injection, schedule: Q04DX002 (ip), vehicle: saline with Tween-80
[7] = endpoint: mean survival time, dose: 100.0 mg/kg/injection, schedule: Q04DX003 (ip), vehicle: saline with Tween-80
[8] = endpoint: mean survival time, dose: 200.0 mg/kg/injection, schedule: Q04DX003 (ip), vehicle: saline with Tween-80
[9] = endpoint: mean survival time, dose: 400.0 mg/kg/injection, schedule: Q04DX003 (ip), vehicle: saline with Tween-80
[10] = endpoint: mean survival time, dose: 100.0 mg/kg/injection, schedule: Q01DX005 (ip), vehicle: saline
[11] = endpoint: mean survival time, dose: 200.0 mg/kg/injection, schedule: Q01DX005 (ip), vehicle: saline
[12] = endpoint: mean survival time, dose: 12.5 mg/kg/injection, schedule: Q01DX009 (ip), vehicle: saline with Tween-80
[13] = endpoint: mean survival time, dose: 25.0 mg/kg/injection, schedule: Q01DX009 (ip), vehicle: saline with Tween-80
[14] = endpoint: mean survival time, dose: 50.0 mg/kg/injection, schedule: Q01DX009 (ip), vehicle: saline with Tween-80
[15] = endpoint: mean survival time, dose: 100.0 mg/kg/injection, schedule: Q01DX009 (ip), vehicle: water
[16] = endpoint: mean survival time, dose: 100.0 mg/kg/injection, schedule: Q04DX003 (ip), vehicle: saline
[17] = endpoint: mean survival time, dose: 200.0 mg/kg/injection, schedule: Q04DX003 (ip), vehicle: saline
[18] = endpoint: mean survival time, dose: 400.0 mg/kg/injection, schedule: Q04DX003 (ip), vehicle: saline

Measured: T/C

Cc1ccc(NC(=S)NCCO)cc1
inactive: [1] 86 % of control | [2] 92 % of control | [3] 88 % of control

N/C(=N\O)c1ncn(C2CCCC2)c1N
inactive: endpoint: mean survival time, dose: 75.0 mg/kg/injection, schedule: Q01DX001 (ip), vehicle: other 100 % of control | endpoint: mean survival time, dose: 150.0 mg/kg/injection, schedule: Q01DX001 (ip), vehicle: other 102 % of control

O=S(=O)(O)N=Nc1ccc(OCc2ccccc2)cc1
inactive: [4] 100 % of control | endpoint: mean survival time, dose: 200.0 mg/kg/injection, schedule: Q01DX001 (ip), vehicle: saline 100 % of control | endpoint: mean survival time, dose: 400.0 mg/kg/injection, schedule: Q01DX001 (ip), vehicle: saline 97 % of control

NC(=O)c1ccccc1CO
inactive: [5] 102 % of control | [6] 98 % of control | endpoint: mean survival time, dose: 400.0 mg/kg/injection, schedule: Q04DX002 (ip), vehicle: saline with Tween-80 98 % of control

c1ccc(COCCOc2ccccc2)cc1
inactive: [7] 96 % of control | [8] 98 % of control | [9] 102 % of control

Nc1ncnc2c1c(-c1nnc3c(n1)-c1ccccc1C3=O)cn2C1OC(CO)C(O)C1O (stereo not given)
inactive: [10] 100 % of control | [11] 100 % of control

N=C(N)SCc1ccccc1
inactive: endpoint: mean survival time, dose: 6.25 mg/kg/injection, schedule: Q04DX003 (ip), vehicle: saline with Tween-80 114 % of control | [12] 94 % of control | endpoint: mean survival time, dose: 12.5 mg/kg/injection, schedule: Q04DX003 (ip), vehicle: saline with Tween-80 100 % of control | endpoint: mean survival time, dose: 25.0 mg/kg/injection, schedule: Q01DX001 (ip), vehicle: saline 93 % of control | [13] 96 % of control | endpoint: mean survival time, dose: 25.0 mg/kg/injection, schedule: Q04DX003 (ip), vehicle: saline with Tween-80 112 % of control | endpoint: mean survival time, dose: 50.0 mg/kg/injection, schedule: Q01DX001 (ip), vehicle: saline 100 % of control | [14] 93 % of control and 97 % of control | endpoint: mean survival time, dose: 50.0 mg/kg/injection, schedule: Q04DX003 (ip), vehicle: saline with Tween-80 94 % of control and 97 % of control | [4] 96 % of control | [7] 100 % of control | [2] 86 % of control | [8] 95 % of control

CNC(=O)Cc1ccc2cc(OC)c(OC)cc2c1
inactive: [1] 100 % of control | [2] 102 % of control

O=C(NCCCl)Nc1ccc(O)cc1
inactive: endpoint: mean survival time, dose: 100.0 mg/kg/injection, schedule: Q01DX001 (ip), vehicle: carboxymethylcellulose (CMC) 101 % of control | endpoint: mean survival time, dose: 200.0 mg/kg/injection, schedule: Q01DX001 (ip), vehicle: carboxymethylcellulose (CMC) 98 % of control | endpoint: mean survival time, dose: 400.0 mg/kg/injection, schedule: Q01DX001 (ip), vehicle: carboxymethylcellulose (CMC) 104 % of control

Nn1[nH]c(=O)c2nc[nH]c2c1=O
inactive: endpoint: median survival time, dose: 15.0 mg/kg/injection, schedule: Q01DX005 (ip), vehicle: saline with Tween-80 103 % of control | endpoint: median survival time, dose: 30.0 mg/kg/injection, schedule: Q01DX005 (ip), vehicle: saline with Tween-80 111 % of control | endpoint: median survival time, dose: 60.0 mg/kg/injection, schedule: Q01DX005 (ip), vehicle: saline with Tween-80 102 % of control

O=c1c2ccccc2sc2cccc(Sc3ccccc3)c12
inactive: [7] 95 % of control | [8] 96 % of control | [9] 91 % of control

O=[N+]([O-])c1ccc(N/N=C(\COc2ccccc2)c2ccccc2)c([N+](=O)[O-])c1
inactive: endpoint: mean survival time, dose: 37.5 mg/kg/injection, schedule: Q01DX001 (ip), vehicle: saline with Tween-80 98 % of control | endpoint: mean survival time, dose: 75.0 mg/kg/injection, schedule: Q01DX001 (ip), vehicle: saline with Tween-80 97 % of control | endpoint: mean survival time, dose: 150.0 mg/kg/injection, schedule: Q01DX001 (ip), vehicle: saline with Tween-80 97 % of control

N#Cc1c2ccccc2nn1C1OC(CO)C(O)C1O (stereo not given)
inactive: [10] 109 % of control | [11] 98 % of control

COc1ccc2c(c1)CCC1C2CCC2(C)C(=O)OC(=O)C12 (stereo not given)
inactive: endpoint: mean survival time, dose: 100.0 mg/kg/injection, schedule: Q04DX003 (sc), vehicle: steriod suspending solution 101 % of control | endpoint: mean survival time, dose: 200.0 mg/kg/injection, schedule: Q04DX003 (sc), vehicle: steriod suspending solution 95 % of control | endpoint: mean survival time, dose: 400.0 mg/kg/injection, schedule: Q04DX003 (sc), vehicle: steriod suspending solution 98 % of control

N#CSc1ccc2c(ccn2C2OCC(O)C(O)C2O)c1 (stereo not given)
inactive: endpoint: mean survival time, dose: 12.5 mg/kg/injection, schedule: Q01DX005 (ip), vehicle: other 93 % of control | endpoint: mean survival time, dose: 25.0 mg/kg/injection, schedule: Q01DX005 (ip), vehicle: other 93 % of control | endpoint: mean survival time, dose: 50.0 mg/kg/injection, schedule: Q01DX005 (ip), vehicle: other 101 % of control

COC(=O)/C=N/Nc1ccc(C)cc1
inactive: [15] 86 % of control | endpoint: mean survival time, dose: 200.0 mg/kg/injection, schedule: Q01DX009 (ip), vehicle: water 88 % of control | endpoint: mean survival time, dose: 400.0 mg/kg/injection, schedule: Q01DX009 (ip), vehicle: water 86 % of control

N#CCC(N)=S
inactive: [12] 112 % of control | [13] 106 % of control | [14] 96 % of control

O=C1C2C(C(=O)N1c1ccc(F)c([N+](=O)[O-])c1)C1(Cl)C(Cl)=C(Cl)C2(Cl)C1(Cl)Cl (stereo not given)
inactive: [14] 108 % of control | [1] 116 % of control | [2] 111 % of control

O=C(O)c1ccccc1C(=O)Nc1ccc(Cl)cc1
inactive: [1] 95 % of control | [7] 94 % of control | [2] 89 % of control | [8] 96 % of control | [9] 86 % of control

CCCC(N(C)C)P(=O)(O)O (stereo not given)
inactive: [16] 95 % of control | [17] 101 % of control | [18] 101 % of control

CCOc1nnc(-c2ccccc2)o1
inactive: endpoint: mean survival time, dose: 12.5 mg/kg/injection, schedule: Q01DX009 (ip), vehicle: other 92 % of control | endpoint: mean survival time, dose: 25.0 mg/kg/injection, schedule: Q01DX009 (ip), vehicle: other 96 % of control | endpoint: mean survival time, dose: 50.0 mg/kg/injection, schedule: Q01DX009 (ip), vehicle: other 97 % of control | endpoint: mean survival time, dose: 100.0 mg/kg/injection, schedule: Q01DX009 (ip), vehicle: other 100 % of control | endpoint: mean survival time, dose: 200.0 mg/kg/injection, schedule: Q01DX009 (ip), vehicle: other 97 % of control

N#CC1CCCC[N-]1.[NH-]CC[N-]CC[NH-].[Pt+4] (stereo not given)
inactive: endpoint: mean survival time, dose: 12.5 mg/kg/injection, schedule: Q01DX009 (ip), vehicle: water 93 % of control | endpoint: mean survival time, dose: 25.0 mg/kg/injection, schedule: Q01DX009 (ip), vehicle: water 95 % of control | endpoint: mean survival time, dose: 50.0 mg/kg/injection, schedule: Q01DX009 (ip), vehicle: water 97 % of control | [15] 88 % of control

[Co+3].[NH-]CC[NH-].[NH-]CC[NH-].[NH-]CC[NH-].[O-][I+2]([O-])O
inactive: [5] 100 % of control | [6] 96 % of control

S=C1SCCS1
inactive: endpoint: mean survival time, dose: 100.0 mg/kg/injection, schedule: Q04DX003 (ip), vehicle: saline sonified 98 % of control | endpoint: mean survival time, dose: 200.0 mg/kg/injection, schedule: Q04DX003 (ip), vehicle: saline sonified 107 % of control | endpoint: mean survival time, dose: 400.0 mg/kg/injection, schedule: Q04DX003 (ip), vehicle: saline sonified 89 % of control

CC12CCC(=O)C1O2 (stereo not given)
inactive: endpoint: mean survival time, dose: 12.5 mg/kg/injection, schedule: Q04DX002 (ip), vehicle: saline with Tween-80 103 % of control | endpoint: mean survival time, dose: 25.0 mg/kg/injection, schedule: Q04DX002 (ip), vehicle: saline with Tween-80 100 % of control | endpoint: mean survival time, dose: 50.0 mg/kg/injection, schedule: Q04DX002 (ip), vehicle: saline with Tween-80 100 % of control

C=CCOCC(O)CN(CCC)CCC (stereo not given)
inactive: endpoint: mean survival time, dose: 12.5 mg/kg/injection, schedule: Q01DX009 (ip), vehicle: saline 103 % of control | endpoint: mean survival time, dose: 25.0 mg/kg/injection, schedule: Q01DX009 (ip), vehicle: saline 95 % of control | endpoint: mean survival time, dose: 25.0 mg/kg/injection, schedule: Q04DX003 (ip), vehicle: saline 93 % of control | endpoint: mean survival time, dose: 50.0 mg/kg/injection, schedule: Q01DX009 (ip), vehicle: saline 103 % of control | endpoint: mean survival time, dose: 50.0 mg/kg/injection, schedule: Q04DX003 (ip), vehicle: saline 89 % of control | [7] 97 % of control

CC(=O)NS(=O)(=O)c1ccc(NC(=O)/C=C/C(=O)O)cc1
inactive: [16] 100 % of control | [17] 100 % of control | [18] 100 % of control

CC(=O)/C=C/C=C\c1ccccc1
inactive: [1] 104 % of control | [2] 94 % of control | [3] 98 % of control

Cc1ccc([P+](=O)O)cc1Cl
inactive: [16] 102 % of control | [17] 97 % of control | [18] 103 % of control
